From article PMC5566973 (Frontiers in Pharmacology, 2017)

Columns and labels:
OATPs = test: in vitro; conditions: human, Caco-2, PappAB
Method: (§1) Caco-2, MDCK and MDCK-MRP2 cells were donated by Prof. Yan Xie and Yueming Ma from Shanghai University of Traditional Chinese Medicine. The cells were grown in culture dishes (Corning® Costar, Cambridge, MA, USA) using DMEM supplemented with 10% FBS, 1% NEAA and 1% penicillin-streptomycin solution. The cells were cultured in 5% CO2 and […] with 90% relative humidity at 37°C. The medium was replaced every other day during incubation. The cells were passaged every 3–4 days between 70 and 80% confluence at a 1:5 split ratio using 0.25% trypsin-EDTA. For the transport experiments, the cells from passages between 30 and 45 were seeded at 1 × 10^5 cells/cm^2 onto permeable polycarbonate inserts (0.45 μm pore size, seeding surface of 0.6 cm^2, Millipore, MA, USA) in 24-well plastic plates. The media in the culture plates were changed every other day for the first week after seeding and were replaced daily afterward. […] The cells were used for the transport experiments 21–28 (Caco-2) or 5–7 (MDCK and MDCK-MRP2) days after seeding, and only monolayers with a TEER-value above 420 Ω cm^2 were used during the studies.
(§2) The apical (AP) and basolateral (BL) sides are typical of polarized Caco-2, MDCK and MDCK-MRP2 epithelial cells. Before the experiments, the polarized cell monolayers were washed twice with warm HBSS solution and subsequently preincubated (37°C, 30 min). Afterward, HBSS solution on both sides of the cell monolayers was removed using a mini desktop vacuum pump. […] The final DMSO concentration in the HBSS or drug mixture was below 0.5%. The monolayers were incubated at 37°C, and 100 μL samples were taken at 30, 60, 90, and 120 min from the acceptor compartment and immediately replaced with the same volume of prewarmed fresh blank HBSS. TEER measurements for assessing the membrane integrity took place before and after the experiments.
(§3) The apparent permeability coefficients (Papp) and ER were calculated as Equations (2) and (3): […]
(§4) where dQ/dt is the steady-state flux, A is the membrane surface area, and C0 is the initial drug concentration in the donor compartment. PappBA is the Papp-value measured in BL to AP direction and PappAB is the Papp-value measured in AP to BL direction. It indicated the involvement of an active transport process when the ER-value is above 1.5 (Hubatsch et al., [2007]).

[1] = system: ATP (adenosine triphosphate); test: Bidirectional transport in MDCK cell monolayers with selective transporter inhibitors or substrates; type: in vitro ADME, canine; conditions: dog, with NaN3 10 mM, + NaN3 10 mM (ATP)
Method: as §1, §2, §3, §4

BCRP = test: as above; type: in vitro ADME, canine; conditions: dog
Method: as §1, §2, §3, §4

MDCK cell monolayers = test: as above; type: in vitro ADME, canine; conditions: 2 μM
Method: as §1, §2, §3, §4

MDR1 = test: as above; type: in vitro ADME, canine; conditions: dog
Method: as §1, §2, §3, §4

MRP2 [2] = test: as above; type: in vitro ADME, canine; conditions: dog
Method: as §1, §2, §3, §4

Na+/K+-ATPase = test: as above; type: in vitro ADME, canine; conditions: dog, with sodium vanadate 0.05 mM (50 μM), + Sodium vanadate 0.05 mM (Na^+)
Method: as §1, §2, §3, §4

OATs = test: as above; type: in vitro ADME, canine; conditions: dog, with cimetidine 0.05 mM (50 μM), + Cimetidine 0.05 mM (OATs)
Method: as §1, §2, §3, §4

OCTs/OCTNs = test: as above; type: in vitro ADME, canine; conditions: dog, with TEA 5 mM, + TEA 5 mM (OCTs/OCTNs)
Method: as §1, §2, §3, §4

SGLT1 = test: as above; type: in vitro ADME, canine; conditions: dog, with phloridzin 0.5 mM, + Phloridzin 0.5 mM (SGLT1)
Method: as §1, §2, §3, §4

MRP2 [3] = test: Western blot analysis of MRP2 protein expression in Caco-2 cells; type: cell-based, human; conditions: 48 h, 2 and 5 μM, compared with the control group
Method: The Caco-2 cells were seeded into 6-well plates at a density of 1 × 10^5 cells/mL and cultured for 24 h. […] Protein lysate was collected by centrifugation at 12,000 rpm at 4°C for 10 min, and the total protein content was determined using BCA protein assay kit. Proteins were then mixed with a quarter volume of loading buffer and heated at 100°C for 5 min. Approximately 20 μg of the total protein content was separated by SDS-PAGE through an 8% acrylamide gel and transferred to PVDF membranes. After washing with PBST, the membrane was blocked with 5% fat-free milk in PBST for 1 h at room temperature (RT) and then incubated with anti-MRP2 (1:500) and anti-GAPDH (1:5,000) overnight at 4°C. Afterwards, the membranes were rinsed with PBST and incubated with HRP-conjugated anti-rabbit (1:5,000) secondary antibody for 2 h at RT. After complete washing with PBST, the protein bands were visualized with ECL prime kit (GE Healthcare, NA, UK).

[4] = Control (no inhibitor or substrate)
[5] = with quinidine 0.1 mM (100 μM), + Quinidine 0.1 mM (MDR1)
[6] = with MK571 0.05 mM (50 μM), + MK571 0.05 mM (MRP2)

`COc1ccc2c(c1)[nH]c1c(C)nccc12` [Harmine] showed a Papp A→B (OATPs) of 14.6 ± 1.31 ×10⁻⁶ cm/s, a Papp A→B at 120 min, 2 μM [1] of 4.02 ± 0.18 ×10⁻⁶ cm/s and a Papp B→A at 120 min, 2 μM [1] of 5.94 ± 0.63 ×10⁻⁶ cm/s. The Papp B→A at 120 min, 2 μM (BCRP; with Ko143 0.01 mM (10 μM), + Ko143 0.01 mM (BCRP)) was 7.05 ± 0.16 ×10⁻⁶ cm/s, the Papp B→A at 120 min, 2 μM (BCRP; with apigenin 0.025 mM (25 μM), + Apigenin 0.025 mM (BCRP)) was 6.83 ± 1.01 ×10⁻⁶ cm/s and the Modulatory effect (MDCK cell monolayers; + Apigenin 0.025 mM (BCRP)) was “−”. The PappAB (MDCK cell monolayers; + Apigenin 0.025 mM (BCRP)) was 4.48 ± 0.24 1 × 10^−6 cm/s, the Modulatory effect (MDCK cell monolayers; + Cimetidine 0.05 mM (OATs)) was “−” and the PappBA (MDCK cell monolayers; + Cimetidine 0.05 mM (OATs)) was 7.43 ± 0.62 1 × 10^−6 cm/s. The Modulatory effect (MDCK cell monolayers; + ES 0.05 mM (OATPs)) was “−”, the PappAB (MDCK cell monolayers; + ES 0.05 mM (OATPs)) was 4.59 ± 0.22 1 × 10^−6 cm/s and the PappBA (MDCK cell monolayers; + ES 0.05 mM (OATPs)) was 7.17 ± 0.68 1 × 10^−6 cm/s. For the same molecule, the Modulatory effect (MDCK cell monolayers; + Gly-Sar 10 mM (PEPT1)) was “−”, the PappAB (MDCK cell monolayers; + Gly-Sar 10 mM (PEPT1)) was 4.59 ± 0.12 1 × 10^−6 cm/s and the PappBA (MDCK cell monolayers; + Gly-Sar 10 mM (PEPT1)) was 7.50 ± 0.34 1 × 10^−6 cm/s. For the same molecule, the Modulatory effect (MDCK cell monolayers; + Ko143 0.01 mM (BCRP)) was “−”, the PappAB (MDCK cell monolayers; + Ko143 0.01 mM (BCRP)) was 4.50 ± 0.48 1 × 10^−6 cm/s and the Modulatory effect (MDCK cell monolayers; + MK571 0.05 mM (MRP2)) was “+”. The Modulatory effect (MDCK cell monolayers; + NaN3 10 mM (ATP)) was “+”, the Modulatory effect (MDCK cell monolayers; + Phloretin 0.3 mM (MCTs)) was “−” and the PappAB (MDCK cell monolayers; + Phloretin 0.3 mM (MCTs)) was 4.51 ± 0.16 1 × 10^−6 cm/s. The PappBA (MDCK cell monolayers; + Phloretin 0.3 mM (MCTs)) was 7.47 ± 0.27 1 × 10^−6 cm/s, the Modulatory effect (MDCK cell monolayers; + Phloridzin 0.5 mM (SGLT1)) was “+” and the PappAB (MDCK cell monolayers; + Phloridzin 0.5 mM (SGLT1)) was 3.89 ± 0.36^* 1 × 10^−6 cm/s. For the same molecule, the Modulatory effect (MDCK cell monolayers; + Probenecid 0.2 mM (MRP2)) was “+”, the PappBA (MDCK cell monolayers; + Probenecid 0.2 mM (MRP2)) was 7.24 ± 0.27 1 × 10^−6 cm/s and the Modulatory effect (MDCK cell monolayers; + Quinidine 0.1 mM (MDR1)) was “−”. The Modulatory effect (MDCK cell monolayers; + Sodium vanadate 0.05 mM (Na^+)) was “+”, the Modulatory effect (MDCK cell monolayers; + TEA 5 mM (OCTs/OCTNs)) was “+” and the Modulatory effect (MDCK cell monolayers; + Verapamil 0.1 mM (MDR1)) was “−”. The PappAB (MDCK cell monolayers; + Verapamil 0.1 mM (MDR1)) was 4.59 ± 1.34 1 × 10^−6 cm/s, the PappAB (MDCK cell monolayers; [4]) was 4.60 ± 0.25 1 × 10^−6 cm/s and the PappBA (MDCK cell monolayers; [4]) was 7.32 ± 0.19 1 × 10^−6 cm/s. The Papp A→B at 120 min, 2 μM (MDR1; [5]) was 4.43 ± 0.32 ×10⁻⁶ cm/s, the Papp B→A at 120 min, 2 μM (MDR1; [5]) was 7.39 ± 0.32 ×10⁻⁶ cm/s and the Papp B→A at 120 min, 2 μM (MDR1; with verapamil 0.1 mM (100 μM), + Verapamil 0.1 mM (MDR1)) was 7.67 ± 0.21 ×10⁻⁶ cm/s. The Papp A→B at 120 min, 2 μM (MRP2 [2]; [6]) was 5.14 ± 0.1 ×10⁻⁶ cm/s, the Papp B→A at 120 min, 2 μM (MRP2 [2]; [6]) was 6.67 ± 0.37 ×10⁻⁶ cm/s and the Papp A→B at 120 min, 2 μM (MRP2 [2]; with probenecid 0.2 mM (200 μM), + Probenecid 0.2 mM (MRP2)) was 5.21 ± 0.26 ×10⁻⁶ cm/s. It also gave a Papp A→B at 120 min, 2 μM (Na+/K+-ATPase) of 3.87 ± 0.27 ×10⁻⁶ cm/s, a Papp B→A at 120 min, 2 μM (Na+/K+-ATPase) of 5.22 ± 0.97 ×10⁻⁶ cm/s and a Papp A→B at 120 min, 2 μM (OATs) of 4.74 ± 0.13 ×10⁻⁶ cm/s. The Papp A→B at 120 min, 2 μM (OCTs/OCTNs) was 4.15 ± 0.1 ×10⁻⁶ cm/s, the Papp B→A at 120 min, 2 μM (OCTs/OCTNs) was 6.96 ± 0.24 ×10⁻⁶ cm/s and the Papp B→A at 120 min, 2 μM (SGLT1) was 6.27 ± 0.78 ×10⁻⁶ cm/s. The “effect on the expression of MRP2” value (MRP2 [3]) was “slightly up-regulate”.
